Experimental data taken from article PMC7688903 (Frontiers in Microbiology, 2020).
Where a SMILES comes first, the peptide text is derived from it. [ ]: non-standard residue; d: D form.

Assays:
[1] = system: proteases secreted by A. baumannii ATCC 19606; assay: in vitro; settings: Acinetobacter baumannii, A. baumannii ATCC 19606 culture supernatant, pH 8
Method in brief: (§1)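 Cell-free culture supernatants (overnight, 37°C; MH broth for bacteria, 2% tryptone/2% dextrose for yeast) were centrifuged, adjusted to pH 8.0 and 0.22 μm filtered. Peptides at 0.5 mg/mL were incubated in supernatant 24 h at 37°C; remaining intact peptide measured by RP-HPLC, with peptide-free supernatant as negative control.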

[2] = system: proteases secreted by C. albicans ATCC 10231; assay: in vitro; settings: C. albicans ATCC 10231 culture supernatant (2% tryptone/2% dextrose), pH 8.0, 0.22 μm filtered; peptide 0.5 mg/mL; 37°C, 24 h; RP-HPLC
Method in brief: as §1

## CC(C)C[C@H](NC(=O)[C@H](CC(C)C)NC(=O)[C@@H](CCCCN)NC(=O)[C@@H](CCCCN)NC(=O)[C@H](Cc1ccccc1)NC(=O)[C@H](CC(C)C)NC(=O)[C@@H](CCCNC(=N)N)NC(=O)[C@H](N)CCCCN)C(=O)N[C@H](CCCCN)C(=O)N[C@@H](Cc1ccc(O)cc1)C(=O)N[C@@H](CC(C)C)C(=O)N[C@H](CCCNC(=N)N)C(=O)N[C@H](CCCCN)C(=O)N[C@@H](Cc1ccccc1)C(N)=O [DP06] (H-[dK][dR]LF[dK][dK]LL[dK]YL[dR][dK]F-NH2)
[1]
  remaining at 24 h, 0.5 mg/mL: 63.5 ± 3.28%
[2]
  Percent of remained peptide amount after incubation (%): 62.07 ± 3.27 %
